In general, half-life refers to the time in which the quantity being followed falls by half.

The record followed here is US5827845A, “Cephalosporin derivative” (priority 1993, dated 1998).

A short description of data set [1]: blood concentration pharmacokinetics after subcutaneous injection in mice. Format: in vivo, mice (Jcl;ICR strain). The note with it: mouse, serum, sc, 0.5 mg, sodium salt, subcutaneous, 0.5 mg per mouse, HPLC of serum. On the procedure: The test procedure used was as follows: Thus, to mice of Jcl;ICR strain (4 week-aged, male) each was administered subcutaneously an aqueous solution containing 2.5 mg/ml of a test compound dissolved in distilled water sterilized for injections, in such a way that 0.2 ml of said aqueous solution (corresponding to a dosage of the test compound of 0.5 mg per mouse) was injected to one mouse. At the time-points of 5, 15, 30, 60 and 120 minutes after the administration, the blood samples were collected from the armpit of mouse. The blood samples so collected were each allowed to stand for about 2 hours at room temperature and then centrifuged for 10 minutes in a centrifugal separator to recover the serum. The serum obtained was mixed well with an equal volume of methanol added thereto, and the resulting mixture was centrifuged at 12,000 rpm. for 3 minutes. The supernatant obtained was passed through a filter (Sumplep LCR-13-LH) to obtain the serum sample to be assayed by a high performance liquid chromatography (HPLC). This serum sample was assayed by HPLC to measure quantitatively the concentration of the test compound in the serum.
For each test compound, its half-life value in blood and its AUC (Area under the plasma concentration-time curve),which are the pharmacokinetic parameters, were evaluated according to the method of Gauss-Newton.
For the comparison purpose, the ME1206 compound was also tested in the same manner as above.

The subject of a further data set is Escherichia coli GN 206. In words: minimum growth inhibitory concentration, serial dilution method. Format: cell-based. The note with it: Escherichia coli, GN206, Escherichia coli GN 206; sodium salts; 35° C., 18-20 hours; read-out: Minimum growth inhibition concentrations (MIC). On the procedure: (§1) The determination of MIC. was conducted by inoculating the test microorganism to an incubation medium N for sensitive disc (a product of Nissui Seiyaku Co., Japan), effecting the incubation at 35° C. for 18-20 hours and then estimating the growth of the bacteria. The compounds tested were the sodium salts of Compound A to Compound F indicated below:
(§2) For the comparison purpose, the values similarly determined of MIC. ([…]) of ME1206 compound (sodium salt), Cefdinir (sodium salt) (abbreviated as CFDN) and Cefixime (sodium salt) (abbreviated as CFIX) are also shown in Table 1.

For data set [2], the system named is Enterococcus faecalis W-73. Described as above. Format: cell-based. As to conditions: Enterococcus faecalis, W73, Enterococcus faecalis W-73; sodium salts; 35° C., 18-20 hours; read-out: Minimum growth inhibition concentrations (MIC). On the procedure:
as §1, §2

In data set [3] the test system is Staphylococcus aureus M126*. The data set is described as above. The note with it: Staphylococcus aureus; S. aureus M126, methicillin-resistant (MRSA); sodium salts; 35° C., 18-20 hours; read-out: Minimum growth inhibition concentrations (MIC). Format: cell-based. On the procedure:
as §1, §2

In data set [4] the test system is Staphylococcus aureus M133*. The description is as above. The note with it: Staphylococcus aureus, MRSA, S. aureus M133, methicillin-resistant (MRSA); sodium salts; 35° C., 18-20 hours; read-out: Minimum growth inhibition concentrations (MIC). Format: cell-based. On the procedure:
as §1, §2

Another data set deals with Morganella morganii 1510. The data set is described as above. Format: cell-based. The note with it: Morganella morganii, 1510, Morganella morganii 1510; sodium salts; 35° C., 18-20 hours; read-out: Minimum growth inhibition concentrations (MIC). On the procedure:
as §1, §2

In data set [5] the test system is Enterobacter cloacae G-0008. The description is as above. As to conditions: G0008, sodium salts, 35° C., 18-20 hours, read-out: Minimum growth inhibition concentrations (MIC). Format: cell-based. On the procedure: as §1, §2
Data set [6] deals with Enterococcus hirae ATCC 8043. The description is as above. Format: cell-based. As to conditions: Enterococcus hirae, ATCC8043, Enterococcus hirae ATCC 8043; sodium salts; 35° C., 18-20 hours; read-out: Minimum growth inhibition concentrations (MIC). On the procedure:
as §1, §2

The test system of data set [7] is Staphylococcus aureus 209P JC-1. Described as above. Format: cell-based. The note with it: Staphylococcus aureus, 209P, S. aureus 209P JC-1; sodium salts; 35° C., 18-20 hours; read-out: Minimum growth inhibition concentrations (MIC). On the procedure: as §1, §2
Data set [8] deals with Serratia marcescens No. 1. The description is as above. Format: cell-based. As to conditions: sodium salts, 35° C., 18-20 hours, read-out: Minimum growth inhibition concentrations (MIC). On the procedure: as §1, §2

As to `CON=C(C(=O)NC1C(=O)N2C(C(=O)O)=C(C=Cc3scnc3C)CSC12)c1csc(N)n1` (stereo not drawn) [ME1206, 7-[2-methoxyimino-2-(2-aminothiazol-4-yl)acetamido]-3-[2-(4-methylthiazol-5-yl)vinyl]-3-cephem-4-carboxylic acid (syn-isomer, cis-isomer), reference compound], the half-life in data set [1] is 1.1 h. The AUC in data set [1] (read-out: AUC (area under the plasma concentration-time curve)) stood at 184 µg·h/mL. Also, the MIC with Escherichia coli GN 206 was 0.78 µg/mL; in data set [2], 100 µg/mL; in data set [3], 100 µg/mL; in [4] it was 25 µg/mL; in the data set on Morganella morganii 1510 it was 25 µg/mL; in data set [5], 1.56 µg/mL. Also, the MIC worked out at 50 µg/mL in data set [6], 0.39 µg/mL in data set [7] and 0.39 µg/mL in data set [8].
